Measurements: patent US20190077795A1, “ARGININE […] INHIBITORS AND USES THEREOF” (Epizyme, Inc., priority 2014, published 2019)
Read-outs that look alike come from different tables or passages of the source.

What was measured:
[1] = target: T1, human PRMT1 (Homo sapiens, UniProt Q99873); assay: PRMT1 Biochemical Assay; settings: peptide substrate, 3H-SAM Flashplate assay; read-out: PRMT1 IC50
T1 construct: GST-tagged PRMT1; made in house; host or cells: High Five insect cells (baculovirus, pFastBac1)
T1 sequence (Q99873 with tags, fused parts or gaps): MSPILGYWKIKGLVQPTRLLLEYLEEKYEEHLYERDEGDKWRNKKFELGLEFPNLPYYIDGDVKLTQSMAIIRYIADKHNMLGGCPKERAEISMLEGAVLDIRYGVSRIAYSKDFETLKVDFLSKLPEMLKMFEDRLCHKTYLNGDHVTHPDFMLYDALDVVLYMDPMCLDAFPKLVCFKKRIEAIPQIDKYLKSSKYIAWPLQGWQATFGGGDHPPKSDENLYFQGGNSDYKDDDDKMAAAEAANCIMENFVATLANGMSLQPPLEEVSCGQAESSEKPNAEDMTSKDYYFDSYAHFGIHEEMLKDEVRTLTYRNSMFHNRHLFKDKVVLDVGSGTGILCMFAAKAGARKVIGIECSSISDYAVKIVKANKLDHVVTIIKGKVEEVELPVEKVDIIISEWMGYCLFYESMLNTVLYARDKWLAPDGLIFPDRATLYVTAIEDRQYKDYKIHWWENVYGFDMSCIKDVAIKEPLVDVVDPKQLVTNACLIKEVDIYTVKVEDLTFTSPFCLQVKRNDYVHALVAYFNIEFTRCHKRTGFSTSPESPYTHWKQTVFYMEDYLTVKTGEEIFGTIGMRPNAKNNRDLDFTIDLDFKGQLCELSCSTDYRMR
How it was run: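 GST-tagged PRMT1 from baculovirus-infected cells, preincubated with compounds 30 min at room temperature in 20 mM Bicine pH 7.6, 1 mM TCEP, 0.005% BSG, 0.002% Tween 20. Reaction started with ³H-SAM plus biotinylated peptide, stopped with 300 µM cold SAM.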

[2] = target: human PRMT8 (Homo sapiens, UniProt Q9NR22); assay: PRMT8 Biochemical Assay; settings: PRMT8 IC50 (uM), peptide substrate, 3H-SAM Flashplate assay
human PRMT8, sequence (Q9NR22 whole entry): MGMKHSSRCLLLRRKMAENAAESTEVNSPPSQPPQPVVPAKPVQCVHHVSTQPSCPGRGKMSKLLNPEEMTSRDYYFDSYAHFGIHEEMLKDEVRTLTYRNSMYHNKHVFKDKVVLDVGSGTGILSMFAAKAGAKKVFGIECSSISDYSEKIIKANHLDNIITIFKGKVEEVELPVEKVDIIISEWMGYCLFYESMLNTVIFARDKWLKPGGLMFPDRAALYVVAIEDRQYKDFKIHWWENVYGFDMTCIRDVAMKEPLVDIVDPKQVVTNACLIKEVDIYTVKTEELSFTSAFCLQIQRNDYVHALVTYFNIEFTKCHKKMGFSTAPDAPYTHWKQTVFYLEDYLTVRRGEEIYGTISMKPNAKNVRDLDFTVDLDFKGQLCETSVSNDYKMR
Description: S-adenosylmethionine (SAM), S-adenosylhomocysteine (SAH), bicine, Tween20, dimethylsulfoxide (DMSO), bovine skin gelatin (BSG), isopropyl-3-D-thiogalactopyranoside (IPTG), and Tris(2-carboxyethyl)phosphine hydrochloride solution (TCEP) were purchased from Sigma-Aldrich at the highest level of purity possible. ^3H-SAM was purchase from American Radiolabeled Chemicals with a specific activity of 80 Ci/mmol. 384-well streptavidin Flashplates were purchased from PerkinElmer.
E. coli (BL21(DE3) Gold, Stratagene) made competent by the CaCl2 method were transformed with the PRMT8 construct and ampicillin selection. Protein over-expression was accomplished by growing the PRMT8 expressing E. coli clone and inducing expression with 0.3 mM IPTG at 16° C. The culture was grown for 12 hours, harvested by centrifugation, and stored at −80° C. for purification.
GST-tagged PRMT8 was eluted with 50 mM Tris, 2 mM glutathione, pH 7.8. Pooled fractions were cleaved by thrombin (10U) and dialysed in buffer A. GST was removed by reloading the cleaved protein sample onto glutathione sepharose column and PRMT8 was collected in the flow-through fractions. PRMT8 was purified further by ceramic hydroxyapatite chromatography. The column was washed with 50 mM phosphate buffer, 100 mM NaCl, 5% glycerol, 5 mM β-mercaptoethanol, pH 7.8 and PRMT8 was eluted by 100 mM phosphate in the same buffer. Protein was concentrated and buffer was exchanged to 50 mM Tris, 300 mM NaCl, 10% glycerol, 5 mM β-mercaptoethanol, pH 7.8 by ultrafiltration.
General Procedure for PRMT8 Enzyme Assays on Peptide Substrates.
The assays were all performed in a buffer consisting of 20 mM Bicine (pH=7.6), 1 mM TCEP, 0.005% BSG, and 0.002% Tween 20, prepared on the day of use. […] DMSO (1 ul) was added to Columns 11, 12, 23, 24, rows A-H for the maximum signal control and 1 ul of SAH, a known product and inhibitor of PRMT8, was added to columns 11, 12, 23, 24, rows I-P for the minimum signal control. A cocktail (40 ul) containing the PRMT8 enzyme was added by Multidrop Combi (Thermo-Fisher). The compounds were allowed to incubate with PRMT8 for 30 min at room temperature, then a cocktail (10 ul) containing ^3H-SAM and peptide was added to initiate the reaction (final volume=51 ul). […] The assays were stopped by the addition of non-radiolabeled SAM (10 ul) to a final concentration of 400 uM, which dilutes the ^3H-SAM to a level where its incorporation into the peptide substrate is no longer detectable. 50 ul of the reaction in the 384-well polypropylene plate was then transferred to a 384-well Flashplate and the biotinylated peptides were allowed to bind to the streptavidin surface for at least 1 hour before being washed once with 0.1% Tween20 in a Biotek ELx405 plate washer. The plates were then read in a PerkinElmer TopCount plate reader to measure the quantity of ^3H-labeled peptide bound to the Flashplate surface, measured as disintegrations per minute (dpm) or alternatively, referred to as counts per minute (cpm).
Where dpm=disintegrations per minute, cmpd=signal in assay well, and min and max are the respective minimum and maximum signal controls.
Where top and bottom are the normally allowed to float, but may be fixed at 100 or 0 respectively in a 3-parameter fit. The Hill Coefficient normally allowed to float but may also be fixed at 1 in a 3-parameter fit. Y is the % inhibition and X is the compound concentration.

[3] = test system: mono-methyl arginine in RKO cells; assay: RKO Methylation Assay, In Cell Western (ICW); assay type: cell-based; settings: 72 hours
[4] = target: T2, human PRMT6 (Homo sapiens, UniProt Q96LA8); assay: PRMT6 Biochemical Assay
T2 construct: Flag-PRMT6-His; made in house; host or cells: HEK 293F cells (BacMam baculovirus, pFastBacMam)
T2 sequence (Q96LA8 with tags, fused parts or gaps): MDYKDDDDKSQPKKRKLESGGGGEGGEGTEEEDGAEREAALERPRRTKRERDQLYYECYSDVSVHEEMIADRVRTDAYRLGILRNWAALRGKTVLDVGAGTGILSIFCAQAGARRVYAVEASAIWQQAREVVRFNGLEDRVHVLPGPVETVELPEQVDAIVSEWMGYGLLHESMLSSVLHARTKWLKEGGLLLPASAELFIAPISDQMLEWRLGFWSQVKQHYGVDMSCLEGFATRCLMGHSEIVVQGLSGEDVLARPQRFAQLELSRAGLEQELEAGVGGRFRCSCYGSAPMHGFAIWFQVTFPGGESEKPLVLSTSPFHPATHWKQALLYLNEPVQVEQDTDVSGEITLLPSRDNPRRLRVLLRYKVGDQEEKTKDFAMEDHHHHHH

[5] = peptide substrate, 3H-SAM Flashplate assay, read-out: PRMT6 IC50

| IC50 [1] [µM] | IC50 [2] [µM] | IC50 [4, 5] [µM] | Compound | ICW EC30 [3] [µM] | IC50 ([4]; PRMT6 IC50 (uM)) [µM] |
| --- | --- | --- | --- | --- | --- |
| 0.0127 | 0.0525 | 1.2 | CCCOCCOc1cc(-c2n[nH]cc2CN(C)CCNC)cc(C(F)(F)F)c1 [Compound 60] | 1.263 | – |
| 0.0129 | 0.0374 | 0.0114 | CNCCN(C)Cc1c[nH]nc1-c1ccc(OCCOc2ccccc2)cc1 [Compound 61] | 0.13 | – |
| 0.0129 | 0.0363 | 0.00431 | CNCCN(C)Cc1c[nH]nc1-c1ccc(OCCOc2cccc(C(C)C)c2)cc1 [Compound 62] | 1.378 | – |
| 0.0131 | 0.0445 | 0.0317 | CNCCN(C)Cc1ccnn1C1CCC2(CCCO2)CC1 (stereo not shown) [Compound 63] | 0.1727 | – |
| 0.0139 | 0.249 | 0.0535 | CNCCN(C)Cc1c[nH]nc1-c1ccc(OCCCOC)c(OC2CCOCC2)c1 [Compound 64] | 4.628 | – |
| 0.0142 | 0.0371 | 0.0408 | CNCCN(C)Cc1c[nH]nc1-c1ccc(N2CCCCC2)nc1 [Compound 66] | 0.3931 | – |
| 0.0148 | 0.295 | 0.038 | CNCCN(C)Cc1c[nH]nc1-c1ccc(OCCCOC)c(OCC2CCOC2)c1 (stereo not shown) [Compound 68] | 3.454 | – |
| 0.0149 | 0.0312 | 2.54 | CNCCN(C)Cc1c[nH]nc1-c1ccc(N(CCCN2CCOCC2)CC(C)C)nc1 [Compound 69] | 1.337 | – |
| 0.0153 | 0.0452 | 4.39 | CNCCN(C)Cc1c[nH]nc1-c1cc(CC(C)C)cc(OCCOC)c1 [Compound 71] | 0.68 | – |
| 0.0153 | 0.035 | 0.0101 | CNCCN(C)Cc1c[nH]nc1-c1ccc(OCCOc2ccc(OCCOC)cc2)cc1 [Compound 72] | 0.163 | – |
| 0.0162 | 0.0487 | 0.0495 | CNCCN(C)Cc1ccnn1-c1ccc(OCC2CC2)cc1 [Compound 75] | 0.5381 | – |
| 0.0198 | 0.171 | 0.105 | CNCCN(C)Cc1c[nH]nc1-c1cnc(OCCOC)c(C(F)(F)F)c1 [Compound 79] | 2.611 | – |
| 0.0198 | 0.0494 | 0.114 | CNCCN(C)Cc1ccnn1-c1ccc(OC(C)C)cc1 [Compound 80] | 0.411 | – |
| 0.0199 | 0.0947 | 0.0445 | CNCCN(C)Cc1c[nH]nc1-c1ccc2oc(C(C)C)nc2c1 [Compound 81] | 0.927 | – |
| 0.0203 | 0.189 | 0.0777 | CNCCN(C)Cc1c[nH]nc1-c1cnc(OCCCOC)c(C(F)(F)F)c1 [Compound 82] | 4.06 | – |
| 0.0205 | 0.0337 | 0.069 | CNCCN(C)Cc1c[nH]nc1-c1ccc(OC(C)C)nc1 [Compound 83] | 0.2 | – |
| 0.0207 | 0.228 | 0.707 | CNCCN(C)Cc1c[nH]nc1-c1cc(OC2CCOC2)cc(C(F)(F)F)c1 (stereo not shown) [Compound 84] | 4.957 | – |
| 0.0213 | 0.0853 | 0.0144 | CNCCN(C)Cc1c[nH]nc1-c1ccc(OC2CC(O)C2)cc1 (stereo not shown) [Compound 85] | 3.594 | – |
| 0.0225 | 0.0686 | 0.0196 | CNCCN(C)Cc1c[nH]nc1-c1ccc(OC2CCC(OC)CC2)cc1 (stereo not shown) [Compound 86] | 0.836 | – |
| 0.0227 | 0.424 | 0.0783 | CNCCN(C)Cc1c[nH]nc1-c1ccc(OCCCOC)c(OCC2CCOCC2)c1 [Compound 87] | 6.199 | – |

| IC50 [1] [µM] | IC50 [2] [µM] | IC50 [4, 5] [µM] | Compound | ICW EC30 [3] [µM] | IC50 ([4]; PRMT6 IC50 (uM)) [µM] |
| --- | --- | --- | --- | --- | --- |
| 0.023 | 0.0267 | 0.0235 | CNCCN(C)Cc1cnn(C)c1-c1ccc(OC2CCOCC2)cc1 [Compound 88] | 1.236 | – |
| 0.0231 | 0.0475 | 0.0251 | CNCCN(C)Cc1c[nH]nc1-c1ccc(OC2CCC(OC(C)C)CC2)cc1 (stereo not shown) [Compound 89] | 0.4491 | – |
| 0.0243 | 0.117 | 0.0199 | CNCCN(C)Cc1c[nH]nc1-c1ccc(OCCOc2cccnn2)cc1 [Compound 90] | 2.491 | – |
| 0.0247 | 0.282 | 0.0322 | CNCCN(C)Cc1c[nH]nc1-c1ccc(OCC2COC2)cc1 [Compound 91] | 3.058 | – |
| 0.0247 | 0.043 | 0.0309 | CNCCN(C)Cc1c[nH]nc1-c1ccc(S(C)(=O)=O)cc1 [Compound 92] | 2.126 | – |
| 0.0248 | 0.326 | 3.38 | CNCCN(C)Cc1c[nH]nc1-c1cc(OCCC(C)(C)O)cc(C(F)(F)F)c1 [Compound 93] | 4.55 | – |
| 0.0255 | 0.158 | 0.823 | COCCOc1cc(-c2n[nH]cc2CN(C)CCN)cc(C(F)(F)F)c1 [Compound 94] | 6.823 | – |
| 0.0258 | 0.0843 | 0.771 | CNCCN(C)Cc1c[nH]nc1-c1cc(OCCOC)cc(C(C)C)c1 [Compound 95] | 0.726 | – |
| 0.0267 | 0.108 | 5.13 | CNCCN(C)Cc1c[nH]nc1-c1cc(OCCOC)cc(OC(F)(F)F)c1 [Compound 96] | 1.762 | – |
| 0.0285 | 0.113 | 0.0289 | CNCCN(C)Cc1c[nH]nc1-c1ccc(OC2CCC(OCCOC)CC2)cc1 (stereo not shown) [Compound 98] | 0.8685 | – |
| 0.0297 | 0.127 | 0.0633 | CNCCN(C)Cc1c[nH]nc1-c1ccc(N2CCCC2=O)cc1 [Compound 99] | 3.944 | – |
| 0.0309 | 0.342 | 2.66 | CNCCN(C)Cc1c[nH]nc1-c1cc(C(=O)NCCOC)cc(C(F)(F)F)c1 [Compound 101] | 11.123 | – |
| 0.0333 | 0.0421 | 0.0274 | CNCCN(C)Cc1c[nH]nc1-c1cc(F)c(OCCOC)c(C(F)(F)F)c1 [Compound 103] | 0.85 | – |
| 0.034 | 0.201 | 3.51 | CCC(CO)Oc1cc(-c2n[nH]cc2CN(C)CCNC)cc(C(F)(F)F)c1 (stereo not shown) [Compound 106] | 3.7 | – |
| 0.0361 | 0.203 | 7.12 | CNCCN(C)Cc1c[nH]nc1-c1cc(OCCOC)cc(C(C)(C)C)c1 [Compound 109] | 1.928 | – |
| 0.0367 | 0.252 | 0.955 | CNCCN(C)Cc1c[nH]nc1-c1ccc(N(C)C2CCOCC2)cc1 [Compound 111] | 1.04 | – |
| 0.0381 | 0.0836 | 0.59 | CCC(CC)Oc1ccc(-n2ncc(C)c2CN(C)CCNC)cc1 [Compound 114] | 1.855 | – |
| 0.0392 | 0.317 | 2.32 | CNCCN(C)Cc1c[nH]nc1-c1ccc(N(C)C2CCOCC2)nc1 [Compound 117] | 8.433 | – |
| 0.0412 | 0.0955 | 0.0342 | CNCCN(C)Cc1c[nH]nc1-c1ccc(OC(CO)CC(C)C)cc1 (stereo not shown) [Compound 118] | 1.175 | – |

| Compound | IC50 [1] [µM] | IC50 [2] [µM] | IC50 [4, 5] [µM] | ICW EC30 [3] [µM] | IC50 ([4]; PRMT6 IC50 (uM)) [µM] |
| --- | --- | --- | --- | --- | --- |
| CCC(CC)Oc1ccc(-n2nc(C)cc2CN(C)CCNC)cc1 [Compound 65] | 0.0141 | 0.0299 | – | 0.2156 | 0.136 |
| CNCCN(C)Cc1c[nH]nc1-c1cc(CC(F)(F)F)cc(OCCOC)c1 [Compound 70] | 0.0152 | 0.0511 | – | 0.494 | 1.27 |
| CNCCN(C)Cc1c[nH]nc1-c1ccc(C#N)cc1 [Compound 74] | 0.0161 | 0.0231 | – | 0.541 | 0.027 |
| CNCCN(C)Cc1c[nH]nc1-c1ccc(N2CCCC2)nc1 [Compound 78] | 0.0183 | 0.0309 | – | 0.7571 | 0.0395 |
| CNCCN(C)Cc1cnn(CCOC)c1-c1ccc(OC(C)C)cc1 [Compound 97] | 0.0282 | 0.0601 | – | 1.994 | 0.106 |
| CNCCN(C)Cc1c[nH]nc1-c1ccc(N(C)CC(C)C)cc1 [Compound 102] | 0.0319 | 0.0819 | – | 1.057 | 0.236 |
| CNCCN(C)Cc1c[nH]nc1-c1cc(OCC2CCOC2)cc(C(F)(F)F)c1 (stereo not shown) [Compound 104] | 0.0333 | 0.226 | – | 1.467 | 2.9 |
| CCOCC(C)(C)c1ccc(-c2n[nH]cc2CN(C)CCNC)cc1 [Compound 105] | 0.034 | 0.106 | – | 2.748 | 0.0559 |
| CNCCN(C)Cc1c[nH]nc1-c1cc(OC)c(CC(C)C)c(OC)c1 [Compound 108] | 0.0357 | 0.0712 | – | 2.967 | 0.824 |
| CNCCN(C)Cc1c[nH]nc1-c1cc(F)c(OCC2CCOCC2)c(C(F)(F)F)c1 [Compound 116] | 0.0391 | 0.118 | – | 3.806 | 0.0184 |
